Source: patent publication US20210261642A1, “SOLUBILITY OF GLP-1 PEPTIDE” (Novo Nordisk A/S, priority 2017, published 2021)
Values after ≈ are worked out from the molar mass of the structure shown. Like-named read-outs stand apart in the source and are kept apart here.

Assay: Assay (I): Determination of Solubility (96-well plate, pH 3.0-11.0, organic solvent 0-70% w/w, UV absorption at 280 nm)
Format: physicochemical
Conditions: for GLP-1 peptide concentration: Method 2 (precipitation), 5° C.; for solubility thermodynamic at 24 h: read-out: Peptide concentration after 24 h
Description: Assay (I): Determination of Solubility
96-Well Plate Preparation
96-well plates containing target peptide in a solid form were prepared in one of two ways:
Method 1 (evaporation): Addition of 100 μl stock solution of said peptide at a concentration of 4-6 mg/ml to each well of a 96-well half area plate (150 μl well size). Subsequently the solvent was evaporated by applying a vacuum until the solvent was completely removed.
Method 2 (precipitation): Addition of a certain volume of a stock solution of said peptide containing to each well of a 96-well half area plate followed by the addition of a certain volume of concentrated phosphoric acid to obtain a pH of 4.6 followed by addition of a certain volume of ethanol resulting in a final ethanol concentration of 20% v/v. Subsequently the plate was stored at 4° C. for 1 h and then centrifuged at 4,000 rpm for 20 min. Finally the supernatant was removed. The concentration of the stock solution was chosen in a way that the final amount of peptide after supernatant removal was >0.4 mg per well.
In both cases the stock solution was prepared by adding de-ionized water to a certain amount of powder of said peptide followed by a stepwise addition of small amounts of a concentrated sodium hydroxide solution until said peptide was completely in solution.
To determine solubility of a target peptide at different pH and organic solvent concentrations, two different buffer systems were used in independent experiments to cover the whole range from pH 3.0 to pH 11.0. Buffer system 1 covers pH 3.0-7.5 and buffer system 2 covers pH 7.5-11.0. For each buffer system 96 different solvent compositions were premixed in the following way: • 1. A low pH buffer (adjusted to either pH 3.0 or pH 7.5) and a high pH buffer (adjusted to either pH 7.5 or pH 11.0) were mixed at 8 different ratios to obtain values between pH 3.0 and pH 7.5 or pH 7.5 and pH 11.0, respectively. The total volume after mixing was 300 μl. • 2. 12 different amounts of organic solvent were then added to these buffers to obtain organic solvent (e.g. ethanol) concentrations between 0 and 70% w/w. • 3. Water was then added to obtain a total weight of 1.0 g of solvent in each well.
After preparing the 96 different solvent systems, 100 μl of each system was transferred to the 96-well plate containing the solid form of the target peptide (prepared as described in the section “96-well plate preparation”). The plate was then stored at a given temperature (between 5° C. and 70° C.) for a given time on a rotating shaker set to 400 rpm. At regular time intervals the plate was centrifuged (4,000 rpm for 10 min) and a 10 μl sample was taken from each well. The samples were then analysed by UV absorption at 280 nm for peptide quantification. Peptide concentration results are given as UV absorption at 280 nm of the sample subtracted UV absorption at 280 nm of a well comprising 10 μl water.
The buffers used were as follows: • Buffer system 1 (for the pH range from pH 3.0-7.5)
• Buffer system 2 (for the pH ranae from pH 7.5-11.0)
Solubility of liraglutide was determined using Assay (I) described herein. Liraglutide was prepared using Method 1 (evaporation) or Method 2 (precipitation) as described in subsection “96-well plate preparation”.

With `CCCCCCCCCCCCCCCC(=O)N[C@@H](CCC(=O)NCCCC[C@H](NC(=O)[C@H](C)NC(=O)[C@H](C)NC(=O)[C@H](CCC(N)=O)NC(=O)CNC(=O)[C@H](CCC(=O)O)NC(=O)[C@H](CC(C)C)NC(=O)[C@H](Cc1ccc(O)cc1)NC(=O)[C@H](CO)NC(=O)[C@H](CO)NC(=O)[C@@H](NC(=O)[C@H](CC(=O)O)NC(=O)[C@H](CO)NC(=O)[C@@H](NC(=O)[C@H](Cc1ccccc1)NC(=O)[C@@H](NC(=O)CNC(=O)[C@H](CCC(=O)O)NC(=O)[C@H](C)NC(=O)[C@@H](N)Cc1cnc[nH]1)[C@@H](C)O)[C@@H](C)O)C(C)C)C(=O)N[C@@H](CCC(=O)O)C(=O)N[C@@H](Cc1ccccc1)C(=O)N[C@H](C(=O)N[C@@H](C)C(=O)N[C@@H](Cc1c[nH]c2ccccc12)C(=O)N[C@@H](CC(C)C)C(=O)N[C@H](C(=O)N[C@@H](CCCNC(=N)N)C(=O)NCC(=O)N[C@@H](CCCNC(=N)N)C(=O)NCC(=O)O)C(C)C)[C@@H](C)CC)C(=O)O` [liraglutide, Arg34,Lys26-(N-epsilon-(gamma-L-glutamyl(N-alfa-hexadecanoyl)))-GLP-1(7-37)] the GLP-1 peptide concentration (MeCN 63.6% w/w, pH 10.00, 5 min, before removal of outliers) was 0.4 mg/mL, the GLP-1 peptide concentration (MeCN 63.6% w/w, pH 10.00, 180 min, after removal of outliers) was 2.9 mg/mL and the GLP-1 peptide concentration (MeCN 63.6% w/w, pH 10.00, 180 min, before removal of outliers) was 2.9 mg/mL. The GLP-1 peptide concentration (MeCN 63.6% w/w, pH 10.00, 24 h, after removal of outliers) was 1.0 mg/mL, the GLP-1 peptide concentration (MeCN 63.6% w/w, pH 10.00, 24 h, before removal of outliers) was 1.0 mg/mL and the GLP-1 peptide concentration (MeCN 63.6% w/w, pH 10.50, 5 min, after removal of outliers) was 0.6 mg/mL. For the same compound, the GLP-1 peptide concentration (MeCN 63.6% w/w, pH 10.50, 5 min, before removal of outliers) was 0.6 mg/mL, the GLP-1 peptide concentration (MeCN 63.6% w/w, pH 10.50, 180 min, after removal of outliers) was 3.4 mg/mL and the GLP-1 peptide concentration (MeCN 63.6% w/w, pH 10.50, 180 min, before removal of outliers) was 3.4 mg/mL. The GLP-1 peptide concentration (MeCN 63.6% w/w, pH 10.50, 24 h, after removal of outliers) was 1.3 mg/mL, the GLP-1 peptide concentration (MeCN 63.6% w/w, pH 10.50, 24 h, before removal of outliers) was 1.3 mg/mL and the GLP-1 peptide concentration (MeCN 63.6% w/w, pH 11.00, 5 min, after removal of outliers) was 0.5 mg/mL. It also gave a GLP-1 peptide concentration (MeCN 63.6% w/w, pH 11.00, 5 min, before removal of outliers) of 0.5 mg/mL, a GLP-1 peptide concentration (MeCN 63.6% w/w, pH 11.00, 180 min, after removal of outliers) of 3.2 mg/mL and a GLP-1 peptide concentration (MeCN 63.6% w/w, pH 11.00, 180 min, before removal of outliers) of 3.2 mg/mL. For the same compound, the GLP-1 peptide concentration (MeCN 63.6% w/w, pH 11.00, 24 h, after removal of outliers) was 1.0 mg/mL, the GLP-1 peptide concentration (MeCN 63.6% w/w, pH 11.00, 24 h, before removal of outliers) was 1.0 mg/mL and the GLP-1 peptide concentration (MeCN 70.0% w/w, pH 7.50, 5 min, before removal of outliers) was 0.3 mg/mL. The GLP-1 peptide concentration (MeCN 70.0% w/w, pH 7.50, 180 min, before removal of outliers) was 0.7 mg/mL, the GLP-1 peptide concentration (MeCN 70.0% w/w, pH 7.50, 24 h, before removal of outliers) was 1.6 mg/mL and the GLP-1 peptide concentration (MeCN 70.0% w/w, pH 8.00, 5 min, after removal of outliers) was 0.4 mg/mL. It also gave a GLP-1 peptide concentration (MeCN 70.0% w/w, pH 8.00, 5 min, before removal of outliers) of 0.4 mg/mL, a GLP-1 peptide concentration (MeCN 70.0% w/w, pH 8.00, 180 min, after removal of outliers) of 1.0 mg/mL and a GLP-1 peptide concentration (MeCN 70.0% w/w, pH 8.00, 180 min, before removal of outliers) of 1.0 mg/mL. It also gave a GLP-1 peptide concentration (MeCN 70.0% w/w, pH 8.00, 24 h, after removal of outliers) of 2.5 mg/mL, a GLP-1 peptide concentration (MeCN 70.0% w/w, pH 8.00, 24 h, before removal of outliers) of 2.5 mg/mL and a GLP-1 peptide concentration (MeCN 70.0% w/w, pH 8.50, 5 min, after removal of outliers) of 0.4 mg/mL. For the same compound, the GLP-1 peptide concentration (MeCN 70.0% w/w, pH 8.50, 5 min, before removal of outliers) was 0.4 mg/mL, the GLP-1 peptide concentration (MeCN 70.0% w/w, pH 8.50, 180 min, after removal of outliers) was 1.4 mg/mL and the GLP-1 peptide concentration (MeCN 70.0% w/w, pH 8.50, 180 min, before removal of outliers) was 1.4 mg/mL. The GLP-1 peptide concentration (MeCN 70.0% w/w, pH 8.50, 24 h, after removal of outliers) was 3.3 mg/mL, the GLP-1 peptide concentration (MeCN 70.0% w/w, pH 8.50, 24 h, before removal of outliers) was 3.3 mg/mL and the GLP-1 peptide concentration (MeCN 70.0% w/w, pH 9.00, 5 min, after removal of outliers) was 0.4 mg/mL. For the same compound, the GLP-1 peptide concentration (MeCN 70.0% w/w, pH 9.00, 5 min, before removal of outliers) was 0.4 mg/mL, the GLP-1 peptide concentration (MeCN 70.0% w/w, pH 9.00, 180 min, after removal of outliers) was 1.5 mg/mL and the GLP-1 peptide concentration (MeCN 70.0% w/w, pH 9.00, 180 min, before removal of outliers) was 1.5 mg/mL. For the same compound, the GLP-1 peptide concentration (MeCN 70.0% w/w, pH 9.00, 24 h, after removal of outliers) was >4.0 mg/mL, the GLP-1 peptide concentration (MeCN 70.0% w/w, pH 9.00, 24 h, before removal of outliers) was >4.0 mg/mL and the GLP-1 peptide concentration (MeCN 70.0% w/w, pH 9.50, 5 min, after removal of outliers) was 0.5 mg/mL. For the same compound, the GLP-1 peptide concentration (MeCN 70.0% w/w, pH 9.50, 5 min, before removal of outliers) was 0.5 mg/mL, the GLP-1 peptide concentration (MeCN 70.0% w/w, pH 9.50, 180 min, before removal of outliers) was 1.9 mg/mL and the GLP-1 peptide concentration (MeCN 70.0% w/w, pH 9.50, 24 h, before removal of outliers) was >4.0 mg/mL. For the same compound, the solubility thermodynamic at 24 h (aqueous buffer / organic solvent mixture, pH 3.1, aqueous buffer, DMF 0.0% w/w, pH 3.1, RT, Method 1 (evaporation)) was 300 µg/mL (≈ 80 µM), the solubility thermodynamic at 24 h (aqueous buffer / organic solvent mixture, pH 4.8, aqueous buffer, DMF 0.0% w/w, pH 4.8, RT, Method 1 (evaporation)) was 200 µg/mL (≈ 53.3 µM) and the solubility thermodynamic at 24 h (aqueous buffer / organic solvent mixture, pH 5.8, aqueous buffer, DMF 0.0% w/w, pH 5.8, RT, Method 1 (evaporation)) was 1500 µg/mL (≈ 400 µM). For the same compound, the solubility thermodynamic at 24 h (aqueous buffer / organic solvent mixture, pH 6.7, aqueous buffer, DMF 0.0% w/w, pH 6.7, RT, Method 1 (evaporation)) was 2200 µg/mL (≈ 586 µM), the solubility thermodynamic at 24 h (pH 3, aqueous buffer, MeCN 0.0% w/w, pH 3.0, RT, Method 1) was 100 µg/mL (≈ 26.7 µM) and the solubility thermodynamic at 24 h (pH 3.6, aqueous buffer, MeCN 0.0% w/w, pH 3.6, RT, Method 1) was 100 µg/mL (≈ 26.7 µM). For the same compound, the solubility thermodynamic at 24 h (pH 4.9, aqueous buffer, MeCN 0.0% w/w, pH 4.9, 5° C., Method 1) was 100 µg/mL (≈ 26.7 µM), the solubility thermodynamic at 24 h (pH 6.2, aqueous buffer, MeCN 0.0% w/w, pH 6.2, 5° C., Method 1) was 100 µg/mL (≈ 26.7 µM) and the solubility thermodynamic at 24 h (pH 6.2, aqueous buffer, MeCN 0.0% w/w, pH 6.2, RT, Method 1) was 500 µg/mL (≈ 133 µM). The solubility thermodynamic at 24 h (premixed buffer/organic solvent/water solvent system, pH 4.3, aqueous buffer, MeCN 0.0% w/w, pH 4.3, 5° C., Method 1) was 200 µg/mL (≈ 53.3 µM).
